In US10344026B2, “Compositions and methods of targeting mutant K-ras” (NANTBIO, INC., priority 2017, dated 2019):

Tests used:
Format in all cases: cell-based
[1] = tested on: Ishikawa (K-Ras wild type cell line); assay: Viability assay (CellTiterBlue, 72 hr) Ishikawa; settings: Homo sapiens, GI50, CellTiterBlue, Ishikawa K-Ras wild-type
Outline: (§1)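 GI50 calculation uses a window set by DMSO-treated wells (100% viability) and 100 uM tamoxifen (0%). Cells (1000/well) sit 18 hr at 37 °C, receive compound for 72 hr in 0.5% DMSO, then get CellTiterBlue for 3 hr before reading at Ex550/Em590.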

[2] = tested on: U87-MG (K-Ras wild type cell line); assay: Viability assay (CellTiterBlue, 72 hr) U87-MG; settings: Homo sapiens, U-87 MG, GI50, CellTiterBlue, U87-MG K-Ras wild-type
Outline: as §1

[3] = tested on: HCC827 (K-Ras wild type cell line); assay: Viability assay (CellTiterBlue, 72 hr) HCC827; settings: Homo sapiens, GI50, CellTiterBlue, HCC827 K-Ras wild-type
Outline: as §1

[4] = tested on: Panc1-G12D; assay: Viability assay (CellTiterBlue, 72 hr) Panc1; settings: Homo sapiens, PANC-1, GI50, CellTiterBlue, Panc1 K-Ras G12D, read-out: 72 hr Cell Viability Panc1 (G12D)
Outline: as §1

[5] = tested on: Panc10.05-G12D; assay: Viability assay (CellTiterBlue, 72 hr) Panc10.05; settings: Homo sapiens, Panc1005, GI50, CellTiterBlue, Panc10.05 K-Ras G12D, read-out: 72 hr Cell Viability Panc10.05 (G12D)
Outline: as §1

[6] = tested on: HCT116-G31D; assay: Viability assay (CellTiterBlue, 72 hr) HCT116; settings: Homo sapiens, HCT-116, GI50, CellTiterBlue, HCT116 K-Ras G13D, read-out: 72 hr Cell Viability HCT116 (G13D)
Outline: as §1

[7] = tested on: phospho-ERK in HCC827 (Wild-type); assay: In-Cell Western phospho-ERK, HCC827; settings: Homo sapiens, 1 h; HCC827, one hour treatment; read-out: In-Cell Western HCC827 (Wild-type) Erk (P)
Outline: (§2)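 Cells were seeded at 3000 cells/well, incubated 18 hr at 37° C, then treated with compound for 1 hr (0.5% DMSO final). After fixation, permeabilization and blocking, phospho-Akt or phospho-ERK antibodies were applied overnight at 4° C, followed by secondary antibody; cellular fluorescence was imaged and EC50 calculated.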

[8] = tested on: phospho-Akt in HCC827 (Wild-type); assay: In-Cell Western phospho-Akt, HCC827; settings: Homo sapiens, 1 h; HCC827, one hour treatment; read-out: In-Cell Western HCC827 (Wild-type) Akt (P)
Experimental: In-cell phosphorylation assays for Erk and Akt were performed on several of the compounds and exemplary results are shown in Table 3 below using HCC827 and A375 cell lines for wild type K-Ras and Panc1 and Panc10.05 cell lines for G12D K-Ras mutants. Results are expressed in μM and corresponding structures are shown in FIGS. 2A-2G and Examples 1-152, above.
Cells are seeded in complete medium into black sided, clear-bottom 384-well microplates at 3000 cells/[…]/well. Plates are returned to 37° C. CO2 incubator for 18 hr. Drug is made as 200× in DMSO and diluted into medium to 10×. To each well is added 4 ul 10× test article or controls, and plates are returned to the incubator. Final assay DMSO concentration is 0.5%. After one hour, cells are fixed in formaldehyde, rinsed & permeabilized with triton X-100, and blocked with BSA/Goat serum blocking solution. Primary phospho-Akt and phospho-ERK antibodies are added and plates are incubated overnight at 4° C. Plates are rinsed with Tween-20 wash buffer and secondary antibody (Goat anti-rabbit, Thermofisher) is added. After 2 hours, plates are rinsed in Tween-20 wash buffer, and then PBS. Plates are imaged on the Celigo (Nexcelom) and cellular fluorescence is quantitated. Full inhibition of phospho-Akt is achieved with 1 uM BEZ235 (Sellekchem), while full inhibition of phospho-ERK is achieved with 1 uM MEK Inhibitor II Calbiochem). EC50 values are calculated using Graphpad Prism.

[9] = tested on: phospho-ERK in Panc1 (G12D); assay: In-Cell Western phospho-ERK, Panc1; settings: Homo sapiens, PANC-1, 1 h; Panc1, one hour treatment; read-out: In-Cell Western Panc1 (G12D) Erk (P)
Outline: as §2

[10] = tested on: phospho-Akt in Panc1 (G12D); assay: In-Cell Western phospho-Akt, Panc1; settings: Homo sapiens, PANC-1, 1 h; Panc1, one hour treatment; read-out: In-Cell Western Panc1 (G12D) Akt (P)
Outline: as §2

[11] = target: T1, wild type K-Ras (Homo sapiens, UniProt P01116); assay: G-LISA Ras activation, 293H cells transfected with Ras wild-type, EGF stimulated; settings: compound 1 hour, then 100 ng/ml EGF 2 minutes
T1 construct: expressed in transfected cells; host or cells: 293H cells
Outline: (§3)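 Active Ras was quantified by G-LISA in lysates of 293H cells transiently expressing wild-type or mutant Ras. Compounds (3.125-25 μM) were applied for 1 hour; only wild-type transfected cells were stimulated with 100 ng/ml EGF for 2 minutes.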

[12] = target: T2, K-Ras G12D (Homo sapiens, UniProt P01116, G12D); assay: G-LISA Ras activation, 293H cells transfected with G12D mutant; settings: compound 1 hour
T2 construct: expressed in transfected cells; host or cells: 293H cells
Outline: as §3

[13] = tested on: A375 (K-Ras wild type cell line); assay: Viability assay (CellTiterBlue, 72 hr) A375; settings: Homo sapiens, A-375, GI50, CellTiterBlue
Outline: as §1

[14] = tested on: phospho-ERK in A375 (Wild-type); assay: In-Cell Western phospho-ERK, A375; settings: Homo sapiens, A-375, 1 h; A375, one hour treatment; read-out: In-Cell Western A375 (Wild-type) Erk (P)
Outline: as §2

[15] = tested on: phospho-Akt in A375 (Wild-type); assay: In-Cell Western phospho-Akt, A375; settings: Homo sapiens, A-375, 1 h; A375, one hour treatment; read-out: In-Cell Western A375 (Wild-type) Akt (P)
Outline: as §2

[16] = tested on: phospho-ERK in Panc10.05 (G12D); assay: In-Cell Western phospho-ERK, Panc10.05; settings: Homo sapiens, Panc1005, 1 h; Panc10.05, one hour treatment; read-out: In-Cell Western Panc10.05 (G12D) Erk (P)
Outline: as §2

[17] = tested on: phospho-Akt in Panc10.05 (G12D); assay: In-Cell Western phospho-Akt, Panc10.05; settings: Homo sapiens, Panc1005, 1 h; Panc10.05, one hour treatment; read-out: In-Cell Western Panc10.05 (G12D) Akt (P)
Outline: as §2

T2 sequence (P01116 whole entry G12D): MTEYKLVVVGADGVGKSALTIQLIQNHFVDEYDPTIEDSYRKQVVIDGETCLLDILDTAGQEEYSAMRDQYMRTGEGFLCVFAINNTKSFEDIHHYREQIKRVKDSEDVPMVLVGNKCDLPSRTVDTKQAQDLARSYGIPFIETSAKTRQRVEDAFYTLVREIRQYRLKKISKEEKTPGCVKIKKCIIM
T1 sequence (P01116 whole entry): as the sequence (P01116 whole entry G12D) above, with D12G counted along it

CCn1cc(C(=O)Nc2nc(-c3ccc4c(c3)CCC(=O)N4)cs2)c(C(F)(F)F)n1 [Compound 39, 1-ethyl-N-(4-(2-oxo-1,2,3,4-tetrahydroquinolin-6-yl)thiazol-2-yl)-3-(trifluoromethyl)-1-pyrazole-4-carboxamide]
IC50 [1]: > 25 µM | IC50 [2]: > 25 µM | IC50 [3]: > 25 µM | IC50 [4]: > 25 µM | IC50 [5]: > 25 µM | IC50 [6]: > 25 µM | EC50 [7]: > 25 µM | EC50 [8]: > 25 µM | EC50 [9]: 28 µM | EC50 [10]: > 25 µM

COc1nn(C)cc1C(=O)Nc1nc(-c2ccc3c(c2)CCC(=O)N3)cs1 [Compound 42, 3-methoxy-1-methyl-N-(4-(2-oxo-1,2,3,4-tetrahydroquinolin-6-yl)thiazol-2-yl)-1H-pyrazole-4-carboxamide]
IC50 [1]: > 25 µM | IC50 [2]: > 25 µM | IC50 [3]: > 25 µM | IC50 [4]: > 25 µM | IC50 [5]: > 25 µM | IC50 [6]: > 25 µM | EC50 [7]: > 25 µM | EC50 [8]: > 25 µM | EC50 [9]: > 25 µM | EC50 [10]: > 25 µM

Cn1cc(C(=O)Nc2nc(-c3ccc4c(c3)CCC(=O)N4)cs2)c(C(C)(C)C)n1 [Compound 38, 3-(tert-butyl)-1-methyl-N-(4-(2-oxo-1,2,3,4-tetrahydroquinolin-6-yl)thiazol-2-yl)-1H-pyrazole-4-carboxamide]
IC50 [1]: 7 µM | IC50 [2]: > 25 µM | IC50 [3]: > 25 µM | IC50 [4]: > 25 µM | IC50 [5]: 7 µM | IC50 [6]: > 25 µM | EC50 [7]: 13 µM | EC50 [8]: > 25 µM | EC50 [9]: > 25 µM | EC50 [10]: 24 µM

CC(C)c1nn(C)cc1C(=O)Nc1nc(-c2ccc3c(c2)CCC(=O)N3)cs1 [Compound 32, 3-isopropyl-1-methyl-N-(4-(2-oxo-1,2,3,4-tetrahydroquinolin-6-yl)thiazol-2-yl)-1H-pyrazole-4-carboxamide]
IC50 [1]: > 25 µM | IC50 [2]: 9 µM | IC50 [3]: 8 µM | IC50 [4]: > 25 µM | IC50 [5]: > 25 µM | IC50 [6]: > 25 µM | EC50 [7]: 20 µM | EC50 [8]: > 25 µM | EC50 [9]: > 25 µM | EC50 [10]: 26 µM

Cn1cc(C(=O)Nc2nc(-c3ccc4c(c3)CCC(=O)N4)cs2)cn1 [Compound 28, 1-methyl-N-(4-(2-oxo-1,2,3,4-tetrahydroquinolin-6-yl)thiazol-2-yl)-1H-pyrazole-4-carboxamide]
IC50 [1]: > 25 µM | IC50 [2]: > 25 µM | IC50 [3]: > 25 µM | IC50 [4]: > 25 µM | IC50 [5]: > 25 µM | IC50 [6]: > 25 µM | EC50 [7]: 16 µM | EC50 [8]: > 25 µM | EC50 [9]: > 25 µM | EC50 [10]: > 25 µM

Cn1cc(C(=O)Nc2nc(-c3ccc4c(c3)CCC(=O)N4)cs2)c(C(F)F)n1 [Compound 27, 3-(difluoromethyl)-1-methyl-N-(4-(2-oxo-1,2,3,4-tetrahydroquinolin-6-yl)thiazol-2-yl)-1H-pyrazole-4-carboxamide]
IC50 [1]: > 25 µM | IC50 [2]: > 25 µM | IC50 [3]: > 25 µM | IC50 [4]: > 25 µM | IC50 [5]: 16 µM | IC50 [6]: > 25 µM | EC50 [7]: > 25 µM | EC50 [8]: > 25 µM | EC50 [9]: 14 µM | EC50 [10]: > 25 µM

Cn1cc(C(=O)Nc2nc(-c3ccc4c(c3)CCC(=O)N4)cs2)c(-c2ccccc2)n1 [Compound 29, 1-methyl-N-(4-(2-oxo-1,2,3,4-tetrahydroquinolin-6-yl)thiazol-2-yl)-3-phenyl-1H-pyrazole-4-carboxamide]
IC50 [1]: > 25 µM | IC50 [2]: > 25 µM | IC50 [3]: > 25 µM | IC50 [4]: > 25 µM | IC50 [5]: > 25 µM | IC50 [6]: > 25 µM | EC50 [7]: 21 µM | EC50 [8]: > 25 µM | EC50 [9]: 13 µM | EC50 [10]: > 25 µM

COC(=O)CCN1C(=O)CCc2cc(-c3csc(NC(=O)c4oc(C)nc4C)n3)ccc21 [Compound 99, methyl 3-(6-(2-(2,4-dimethyloxazole-5-carboxamido)thiazol-4-yl)-2-oxo-3,4-dihydroquinoiolin-1 (2H)-yl)propanoate]
IC50 [11]: 10.2 µM | IC50 [12]: 6.7 µM | IC50 [1]: 4 µM | IC50 [2]: > 25 µM | IC50 [3]: > 25 µM | IC50 [13]: 6 µM | IC50 [4]: 6 µM | IC50 [5]: 6 µM | IC50 [6]: > 25 µM | EC50 [7]: 5 µM | EC50 [14]: > 25 µM | EC50 [15]: > 25 µM | EC50 [9]: 14 µM | EC50 [10]: > 25 µM | EC50 [16]: 5 µM | EC50 [17]: 10 µM

Cc1nn(C)c(C)c1C(=O)Nc1nc(-c2ccc3c(c2)CCC(=O)N3Cc2cccnc2)cs1 [Compound 113, 1,3,5-trimethyl-N-(4-(2-oxo-1-(pyridin-3-ylmethyl)-1,2,3,4-tetrahydroquinolin-6-yl)thiazol-2-yl)-1H-pyrazole-4-carboxamide]
IC50 [11]: 9.6 µM | IC50 [12]: 6.3 µM | IC50 [1]: > 25 µM | IC50 [2]: > 25 µM | IC50 [3]: > 25 µM | IC50 [13]: 14 µM | IC50 [4]: 19 µM | IC50 [5]: 2 µM | IC50 [6]: 11 µM | EC50 [7]: 6 µM | EC50 [14]: 13 µM | EC50 [15]: > 25 µM | EC50 [9]: 2 µM | EC50 [10]: > 25 µM | EC50 [16]: 7 µM | EC50 [17]: > 25 µM

Cc1nc(C(C)C)sc1C(=O)Nc1nc(-c2ccc3c(c2)CCC(=O)N3Cc2cccnc2)cs1 [Compound 107, 2-isopropyl-4-methyl-N-(4-(2-oxo-1-(pyridin-3-ylmethyl)-1,2,3,4-tetrahydroquinolin-6-yl)thiazol-2-yl)thiazole-5-carboxamide]
IC50 [11]: 9.7 µM | IC50 [12]: 6.6 µM | IC50 [1]: > 25 µM | IC50 [2]: > 25 µM | IC50 [3]: > 25 µM | IC50 [13]: 19 µM | IC50 [4]: > 25 µM | IC50 [5]: 2 µM | IC50 [6]: 6 µM | EC50 [7]: 6 µM | EC50 [14]: 16 µM | EC50 [15]: > 25 µM | EC50 [9]: 6 µM | EC50 [10]: > 25 µM | EC50 [16]: 10 µM | EC50 [17]: > 25 µM
